Results published in patent US20080279775A1, “Benztropinamine Analogs as Dopamine Uptake Inhibitors” (priority 2005, published 2008).
Counter-ions that a name gives are not always drawn. Like-named read-outs stand apart in the source and are kept apart here.

Columns and labels:
mice = test: Locomotor stimulant effects (activity counts per minute); assay type: in vivo; conditions: injected, at the most effective dose, FIG. 2
Excerpt: In contrast, 2m produced much more modest increases in activity of around 100 counts per min.

muscarinic M1 receptor = target: T1, muscarinic M1 receptor (Rattus norvegicus, UniProt P08482); test: [3H]Pirenzepine binding assay; conditions: for Binding selectivity M1/DAT: Ki ratio; for Lower binding affinity at the M1 receptor compared to 2a: lower affinity than 2a
T1 construct: Membranes from frozen rat brains excluding cerebellum were thawed in ice-cold buffer; from tissue; host or cells: frozen rat brain (excluding cerebellum) membranes
T1 sequence (P08482 1-460): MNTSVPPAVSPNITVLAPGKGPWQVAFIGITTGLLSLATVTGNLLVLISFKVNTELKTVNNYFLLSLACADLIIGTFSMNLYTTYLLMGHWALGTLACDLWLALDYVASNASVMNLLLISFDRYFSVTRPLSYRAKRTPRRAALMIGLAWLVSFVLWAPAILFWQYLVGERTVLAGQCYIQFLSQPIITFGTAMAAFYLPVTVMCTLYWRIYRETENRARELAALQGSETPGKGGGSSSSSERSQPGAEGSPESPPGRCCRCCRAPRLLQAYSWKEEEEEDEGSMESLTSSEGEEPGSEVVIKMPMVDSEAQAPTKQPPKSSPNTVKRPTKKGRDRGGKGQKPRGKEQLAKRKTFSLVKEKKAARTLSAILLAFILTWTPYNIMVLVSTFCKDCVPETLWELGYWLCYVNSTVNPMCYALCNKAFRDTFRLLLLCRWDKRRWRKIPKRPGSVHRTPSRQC
Experimental: In order to understand the neurochemical and behavioral properties of the compounds of the present invention, exemplary benztropinamine analogs were evaluated for displacement of [^3H]WIN 35,428 (2β-carbomethoxy-3β-(4-fluorophenyl)tropane) binding to the DAT in rat caudate-putamen. These benztropinamine analogs were also evaluated for displacement of radiolabeled ligand binding at the serotonin (SERT) and norepinephrine (NET) transporters as well as the muscarinic m1 receptor (M1), Table 1, infra. The NET over DAT selectivity refers to the Ki ratio. […] The DAT selectivities of the analogs over these binding sites are depicted in Table 2.
[…] Binding Assay. Membranes from frozen rat brains excluding cerebellum were thawed in ice-cold buffer (10 mM Tris-HCl, 320 mM sucrose, pH 7.4) and homogenized with a Brinkman polytron in a volume of 10 ml/gm of tissue. The homogenate was centrifuged at 1,000×g for 10 min at 4° C. The resulting supernatant was then centrifuged at 10,000×g for 20 min at 4° C. The resulting pellet was resuspended in a volume of 200 mg/ml in 10 mM Tris buffer (pH 7.4). Ligand binding assays were conducted in tubes containing 0.5 ml of buffer (10 mM Tris-HCl, 5 mM MgCl2), 3 nM [^3H]pirenzepine (New England Nuclear, Boston, Mass.), and 20 mg of brain tissue. The reaction was started with the addition of the tissue and the tubes were incubated for 60 min in a 37° C. water bath. The incubation was terminated by the addition of 5 ml of ice-cold buffer (10 mM Tris-HCl, pH 7.4) and rapid filtration through Whatman GF/B glass fiber filter paper (presoaked in 0.5% polyethylenimine) using a Brandel Cell Harvester (Brandel Instruments, Gaithersburg, Md.). The filters were washed twice with 5 ml cold buffer, and transferred to scintillation vials to which absolute ethanol and Beckman Ready Safe was added. Quinuclidinyl benzilate (QNB), 100 μM final concentration, was used to determine non-specific binding. Data were analyzed by using GraphPad Prism software (San Diego, Calif.).

DAT = target: T2, DAT (Rattus norvegicus, UniProt P23977); test: Dopamine transporter binding assay, displacement of [3H]WIN 35,428; conditions: for Ki: rat caudate-putamen membranes, read-out: DAT [3H]WIN 35,428 Ki ± SEM; for Reduction of binding affinity at the DAT compared to 2a: lower affinity than 2a
T2 construct: their brains removed to an ice-cooled dish for dissection of the caudate putamen; from tissue; host or cells: rat caudate putamen membranes (fresh homogenates)

NET [1] = assay type: binding, rat; conditions: for Binding selectivity NET/DAT: Ki ratio
Experimental: (§1) In order to understand the neurochemical and behavioral properties of the compounds of the present invention, exemplary benztropinamine analogs were evaluated for displacement of [^3H]WIN 35,428 (2β-carbomethoxy-3β-(4-fluorophenyl)tropane) binding to the DAT in rat caudate-putamen. These benztropinamine analogs were also evaluated for displacement of radiolabeled ligand binding at the serotonin (SERT) and norepinephrine (NET) transporters as well as the muscarinic m1 receptor (M1), Table 1, infra. The NET over DAT selectivity refers to the Ki ratio. When the Ki ratio is greater than 1, the compound is DAT selective. The DAT selectivities of the analogs over these binding sites are depicted in Table 2.
(§2) [^3H]Nisoxetine Binding Assay. Membranes from frozen frontal cortex dissected from male Sprague-Dawley rats (Taconic Labs, Germantown, N.Y.) were homogenized in 20 volumes (w/v) of 50 mM Tris containing 120 mM NaCl and 5 mM KCl (pH 7.4 at 25° C.), using a Brinkman Polytron (at setting 6 for 20 sec). The tissue was centrifuged at 50,000×g for 10 min at 4° C. The resulting pellet was resuspended in buffer and recentrifuged. The final pellet was resuspended in cold buffer to a concentration of 80 mg/ml (original wet weight). Ligand binding experiments were conducted in assay tubes containing 0.5 ml buffer, 0.5 nM [3H]nisoxetine (New England Nuclear, Boston, Mass.), and 8 mg frontal cortex tissue. The reaction was started with the addition of the tissue and the tubes were incubated for 60 min at 0-4° C. The incubation was terminated by rapid filtration through Whatman GF/B filters, presoaked in 0.05% polyethylenimine, using a Brandel Cell Harvester (Brandel Instruments Gaithersburg, Md.). The filters were washed twice with 5 ml cold buffer, transferred to scintillation vials to which Beckman Ready Safe was added. Nonspecific binding was determined using 1 μM desipramine. Data were analyzed using GraphPad Prism software (San Diego, Calif.).

SERT = target: T3, SERT (Rattus norvegicus, UniProt P31652); test: [3H]Citalopram binding assay; conditions: for Binding selectivity SERT/DAT: Ki ratio
T3 construct: Membranes from frozen rat midbrain were homogenized; from tissue; host or cells: frozen rat midbrain membranes
Experimental: as §1
[^3H]Citalopram Binding Assay. Membranes from frozen rat midbrain were homogenized in 20 volumes (w/v) of 50 mM Tris containing 120 mM NaCl and 5 mM KCl (pH 7.4 at 25° C.), using a Brinkman Polytron (at setting 6 for 20 sec). The tissue was centrifuged at 20,000×g for 10 min at 4° C. The resulting pellet was resuspended in buffer and recentrifuged. The final pellet was resuspended in cold buffer to a concentration of 15 mg/ml (original wet weight). Ligand binding experiments were conducted in assay tubes containing 0.5 ml of buffer, 1.4 nM [^3H]citalopram (New England Nuclear, Boston Mass.), and 1.5 mg midbrain tissue. The reaction was started with the addition of the tissue and the tubes were incubated for 60 min at 25° C. (room temperature). The incubation was terminated by rapid filtration through Whatman GF/B filters (presoaked in 0.3% polyethylenimine in water) using a Brandel Cell Harvester (Brandel Instruments Gaithersburg, Md.). The filters were washed twice with 5 ml cold buffer, transferred to scintillation vials to which Beckman Ready Safe was added. Nonspecific binding was determined using 10 μM fluoxetine (RBI, Natick, Mass.). Data were analyzed using GraphPad Prism software (San Diego, Calif.).

NET [2] = target: NET (Rattus norvegicus, UniProt Q63380); assay type: binding
Experimental: as §1, §2

[3] = rat brain membranes excluding cerebellum, read-out: M1 [3H]pirenzepine Ki ± SEM
[4] = rat midbrain membranes, read-out: SERT [3H]citalopram Ki ± SEM

T2 sequence (P23977 whole entry): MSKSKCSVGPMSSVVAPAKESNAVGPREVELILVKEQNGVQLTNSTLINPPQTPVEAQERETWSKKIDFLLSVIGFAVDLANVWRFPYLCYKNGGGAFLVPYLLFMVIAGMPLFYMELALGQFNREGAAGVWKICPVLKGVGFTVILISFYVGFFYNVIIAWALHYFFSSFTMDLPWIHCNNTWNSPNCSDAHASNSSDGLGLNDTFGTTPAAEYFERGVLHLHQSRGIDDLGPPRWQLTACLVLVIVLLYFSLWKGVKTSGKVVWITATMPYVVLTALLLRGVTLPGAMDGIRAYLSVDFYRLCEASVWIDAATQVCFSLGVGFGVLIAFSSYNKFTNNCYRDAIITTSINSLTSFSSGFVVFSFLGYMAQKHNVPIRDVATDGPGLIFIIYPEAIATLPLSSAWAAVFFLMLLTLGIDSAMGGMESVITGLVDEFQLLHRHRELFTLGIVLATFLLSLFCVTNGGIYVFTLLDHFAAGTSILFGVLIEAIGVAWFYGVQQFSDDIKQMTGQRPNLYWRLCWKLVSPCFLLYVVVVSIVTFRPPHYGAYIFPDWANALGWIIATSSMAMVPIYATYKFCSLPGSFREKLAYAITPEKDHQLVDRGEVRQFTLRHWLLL
T3 sequence (P31652 whole entry): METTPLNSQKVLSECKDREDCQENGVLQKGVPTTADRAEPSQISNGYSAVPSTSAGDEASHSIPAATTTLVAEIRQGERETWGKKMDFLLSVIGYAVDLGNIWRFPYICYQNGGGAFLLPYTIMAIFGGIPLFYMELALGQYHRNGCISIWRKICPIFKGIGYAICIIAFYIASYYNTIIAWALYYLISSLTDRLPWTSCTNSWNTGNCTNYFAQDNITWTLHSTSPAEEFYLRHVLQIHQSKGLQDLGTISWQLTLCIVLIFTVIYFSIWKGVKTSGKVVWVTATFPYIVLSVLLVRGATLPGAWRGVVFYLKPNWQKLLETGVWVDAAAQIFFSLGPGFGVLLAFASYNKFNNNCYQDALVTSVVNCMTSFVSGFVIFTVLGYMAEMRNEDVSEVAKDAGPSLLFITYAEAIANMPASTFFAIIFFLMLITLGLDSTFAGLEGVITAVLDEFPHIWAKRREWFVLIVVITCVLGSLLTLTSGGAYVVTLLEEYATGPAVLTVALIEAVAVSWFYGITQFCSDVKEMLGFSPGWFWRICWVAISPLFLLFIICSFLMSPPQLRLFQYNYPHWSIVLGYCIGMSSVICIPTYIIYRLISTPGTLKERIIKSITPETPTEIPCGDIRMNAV
Chain of NET (Rattus norvegicus, UniProt Q63380) (Q63380 1-617): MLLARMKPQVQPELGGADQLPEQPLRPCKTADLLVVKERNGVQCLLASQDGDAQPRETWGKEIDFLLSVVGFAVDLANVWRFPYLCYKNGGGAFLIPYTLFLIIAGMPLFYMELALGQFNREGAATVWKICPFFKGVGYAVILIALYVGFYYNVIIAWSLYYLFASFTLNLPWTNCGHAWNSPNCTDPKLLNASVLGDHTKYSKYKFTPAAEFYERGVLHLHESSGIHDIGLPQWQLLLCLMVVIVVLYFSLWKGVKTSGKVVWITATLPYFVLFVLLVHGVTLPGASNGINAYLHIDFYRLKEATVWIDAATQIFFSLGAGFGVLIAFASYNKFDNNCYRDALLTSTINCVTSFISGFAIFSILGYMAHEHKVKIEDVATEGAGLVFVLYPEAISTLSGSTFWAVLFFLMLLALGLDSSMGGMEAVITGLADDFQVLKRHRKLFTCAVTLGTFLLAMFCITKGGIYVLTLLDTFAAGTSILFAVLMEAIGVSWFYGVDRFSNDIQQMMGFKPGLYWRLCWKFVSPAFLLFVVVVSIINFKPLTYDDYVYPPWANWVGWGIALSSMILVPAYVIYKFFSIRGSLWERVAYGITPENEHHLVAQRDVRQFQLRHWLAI

SMILES	Binding selectivity M1/DAT (muscarinic M1 receptor)	Ki (muscarinic M1 receptor; [3]) [nM]	Ki (DAT) [nM]	Binding selectivity NET/DAT (NET [1])	Binding selectivity SERT/DAT (SERT)	Ki (SERT; [4]) [nM]	further results
CN(C(c1ccc(F)cc1)c1ccc(F)cc1)[C@H]1C[C@H]2CC[C@@H](C1)N2C (as salt: oxalate) [Compound 2c]	–	–	–	–	–	–	melting point: 227 to 228 °C
Fc1ccc(C(N[C@H]2C[C@H]3CC[C@@H](C2)N3)c2ccc(F)cc2)cc1 (as salt: oxalate) [Compound 2g]	–	–	–	–	–	–	melting point: 138 to 140 °C
Fc1ccc(C(N[C@H]2C[C@H]3CC[C@@H](C2)N3CCCCc2ccccc2)c2ccc(F)cc2)cc1 (as salt: oxalate) [Compound 2j]	–	–	–	–	–	–	melting point: 194 to 196 °C
Fc1ccc(C(N[C@H]2C[C@H]3CC[C@@H](C2)N3CCc2c[nH]c3ccccc23)c2ccc(F)cc2)cc1 (as salt: oxalate) [Compound 2l]	–	–	–	–	–	–	melting point: 178 to 180 °C
COC(=O)[C@H]1[C@@H](OC(=O)c2ccccc2)C[C@@H]2CC[C@H]1N2C [Cocaine, cocaine, reference compound]	–	–	–	–	–	–	Locomotor activity (mice): ~400 counts per min
CN1[C@@H]2CC[C@H]1C[C@@H](NC(c1ccc(F)cc1)c1ccc(F)cc1)C2 [Compound 2a]	0.7	7.81 ± 1.17	11.3 ± 1.61	160	769	8680 ± 436	–
CN1[C@@H]2CC[C@H]1C[C@H](NC(c1ccc(F)cc1)c1ccc(F)cc1)C2 [Compound 2b]	0.1	–	661 ± 35	23	73	–	Ki (muscarinic M1 receptor): 59.4 ± 7.3 nM; Reduction of binding affinity at the DAT compared to 2a (DAT): 58 fold; Ki (NET [2]; read-out: NET [3H]nisoxetine Ki ± SEM, rat frontal cortex membranes): 15200 ± 1230 nM; Ki (SERT): 48500 ± 6370 nM
CN(C(c1ccc(F)cc1)c1ccc(F)cc1)[C@H]1C[C@H]2CC[C@@H](C1)N2C [Compound 2c]	0.2	–	123 ± 15.5	68	140	–	Ki (muscarinic M1 receptor): 18.6 ± 2.48 nM; Lower binding affinity at the M1 receptor compared to 2a (muscarinic M1 receptor): about 2 fold; Reduction of binding affinity at the DAT compared to 2a (DAT): 11 fold; Lower binding affinity at the NET compared to 2a (NET [2]; lower affinity than 2a): about 5 fold; Ki (SERT): 17200 ± 2460 nM; Lower binding affinity at the SERT compared to 2a (SERT; lower affinity than 2a): about 2 fold
CN1[C@@H]2CC[C@H]1C[C@@H](NC(c1ccc(Cl)cc1)c1ccc(Cl)cc1)C2 [Compound 2d]	–	50 ± 7.1	–	–	–	4180 ± 623	Reduction of binding affinity at the DAT compared to 2a (DAT): around 3 fold
CN1[C@@H]2CC[C@H]1C[C@@H](NC(c1ccccc1)c1ccc(Cl)cc1)C2 (some centres unmarked) [Compound 2e]	0.3	9.3 ± 0.27	36.5 ± 0.66	87	373	13600 ± 1040	Reduction of binding affinity at the DAT compared to 2a (DAT): around 3 fold
CN1[C@@H]2CC[C@H]1C[C@@H](NC(c1ccc(Cl)c(Cl)c1)c1ccc(Cl)c(Cl)c1)C2 [Compound 2f]	3	17.8 ± 2.27	5.35 ± 0.25	48	563	3010 ± 332	Higher binding affinity at the DAT compared to 2a (DAT; higher affinity than 2a): 2 fold; Reduction of NET over DAT selectivity compared to 2a (NET [1]; compared to 2a): 3 fold
Fc1ccc(C(N[C@H]2C[C@H]3CC[C@@H](C2)N3)c2ccc(F)cc2)cc1 [Compound 2g]	18	154 ± 19.6	8.45 ± 0.23	118	491	4150 ± 368	–
C=CCN1[C@@H]2CC[C@H]1C[C@@H](NC(c1ccc(F)cc1)c1ccc(F)cc1)C2 [Compound 2h]	5	130 ± 10.5	26.8 ± 3.43	208	146	3920 ± 581	–
CCCCN1[C@@H]2CC[C@H]1C[C@@H](NC(c1ccc(F)cc1)c1ccc(F)cc1)C2 [Compound 2i]	21	454 ± 36.7	21.5 ± 2.31	136	123	2640 ± 27.6	–
Fc1ccc(C(N[C@H]2C[C@H]3CC[C@@H](C2)N3CCCCc2ccccc2)c2ccc(F)cc2)cc1 [Compound 2j]	37	438 ± 56.2	11.7 ± 0.39	139	43	502 ± 68.1	–
NCCN1[C@@H]2CC[C@H]1C[C@@H](NC(c1ccc(F)cc1)c1ccc(F)cc1)C2 [Compound 2k]	–	2110 ± 119	12.5 ± 1.73	–	–	–	Lower binding affinity at the M1 receptor compared to 2a (muscarinic M1 receptor): 170 fold
Fc1ccc(C(N[C@H]2C[C@H]3CC[C@@H](C2)N3CCc2c[nH]c3ccccc23)c2ccc(F)cc2)cc1 [Compound 2l]	–	413 ± 6.55	–	–	–	347 ± 41.3	Reduction of binding affinity at the DAT compared to 2a (DAT): 6 fold
